Experimental data published in patent US5894021A, “Iontophoretic transdermal drug-delivery interface and skin treatment agent and treatment method using the same” (Kabushiki Kaisya Advance, priority 1994, dated 1999).

What was measured:
[1] = system: calcium value in the rat serum; test: Transdermal iontophoretic administration of calcitonin in rats after skin cleaning (Example 3), serum calcium; format: in vivo, male SD rats; conditions: 0.04 μg per sheet, 6 V, 30 kHz, 30% duty, 45 minutes
Experimental: Under pentobarbital anesthesia, 7 week old male SD rats had their stomach skin sheared by electric shears and shaved by a shaver, then absorbent cotton containing an aqueous solution of 70% by weight ethanol (Group 3) or absorbent cotton containing an aqueous solution of 70% by weight ethanol plus 0.01% benzalkonium chloride (Group 4) was used to lightly rub and disinfect the areas. Calcitonin dried and held in an amount of 0.04 μg per sheet of drug film (synthetic salmon calcitonin made by Sigma Co.) was dissolved in an aqueous solution at the time of use and used for one rat. The conditions of conductance of power in the iontophoresis were a depolarization type constant voltage high duty pulse of 6 V, 30 kHz, and 30% duty applied for 45 minutes. The blood was sampled after a predetermined time from the jugular vein and was centrifugally separated at 12,000 rpm for 5 minutes. The supernatant was used as the serum sample. The calcium in the blood was measured by the o-cresol phthalein complex method (Calcium C Test Wako made by Wako Pure Chemical Industries, Ltd.).

[2] = system: calcium value in the rat serum; test: Transdermal iontophoretic administration of calcitonin in rats with benzalkonium chloride-treated or nontreated nylon porous film (Example 1), serum calcium; format: in vivo, SD male rats; conditions: 2 IU (0.4 μg) per sheet, 6 V, 30 kHz, 30% duty, 45 minutes
Source text: These drug holding members, that is, the ion exchange membrane (4), nonwoven fabric (5), and nylon porous member (6) (in this case the holding including at least contact with a drug contact member also acceptable) are coated or impregnated uniformly by an aqueous solution of 0.01% benzalkonium chloride or else immersed in an aqueous solution of the same for treatment, then stripped of water and dried. Of the thus obtained AC-220 membrane, nonwoven fabric, and nylon porous member, the skin contact surface of the nylon porous member has deposited on it a bioactive peptide by a means such as spray coating or impregnation followed by drying for retention. The portion of the nylon porous member (6) coming into contact with the live skin has the drug (11) affixed to it. At the edges of the nylon porous member (6) and under the support (10) are for example disposed an adhesive tape (8) composed of Blenderm® (made by 3M Health Care Ltd.).
Method: Under pentobarbital anesthesia, 7 week old SD male rats had their stomach skin sheared by electric shears and shaved by a shaver, then absorbent cotton containing an aqueous solution of 70% by weight ethanol was used to lightly rub and disinfect the area. […] The serum calcium was measured by the o-cresol phthalein complex method (Calcium C Test Wako made by Wako Pure Chemical Industries, Ltd.).

[3] = Prevention test of skin adsorption of drug: nonabsorbed calcitonin in solution on excised rat skin (Example 2), HPLC; format: in vitro ADME, male hairless rats; conditions: after one hour, 2 μg/ml calcitonin, 60 min
Experimental: The stomach skin of male hairless rats of 13 weeks age were sheared by electric shears, then lightly rubbed and disinfected by absorbent cotton containing an aqueous solution of 70% ethanol. The skin was separated by scissors, then placed on a paper towel moistened with physiological saline with the epidermal side facing up. An acrylic chamber cup (18 mm diameter and 20 mm height) was immersed for 5 minutes in a silicone coating and an aqueous solution of 1% benzalkonium chloride, then was fully rinsed and washed by distilled water. The acrylic chamber cup was adhered to the skin by medicinal adhesive and dried, then filled with 2 ml of an aqueous solution of 1% benzalkonium chloride (Group 2)or distilled water as a control (Group 1) and allowed to stand for 5 minutes. The solution was removed then the cup was fully rinsed and washed by distilled water. As one example of the polypeptide drug, a solution of 2 μg/ml of calcitonin (synthetic salmon calcitonin made by Sigma Co.) in distilled water was prepared. A 2 ml amount each were added to two acrylic chamber cups treated as explained above which were then allowed to stand. Amounts of 100 μl each were sampled after 1, 2, and 6 hours and the amount of nonabsorbed calcitonin in the solution was measured by high pressure liquid chromatography.

Substance: calcitonin
- maximum reduction in the calcium value in rat serum ([1]; skin cleaned by 70% by weight ethanol containing 0.01% benzalkonium chloride (Group 4)): about 30%
- maximum reduction in the calcium value in the rat serum ([1]; skin cleaned by 70% ethanol alone (Group 3)): approximately 13%
- maximum reduction in the calcium value in the rat serum ([2]; nylon porous film not coated with surfactant (nontreated group)): approximately 17%
- maximum reduction in the calcium value in the rat serum ([2]; nylon porous film treated by benzalkonium chloride (treated group)): 28%
- amount of calcitonin in the aqueous solution in terms of the initially prepared concentration ([3]; skin washed with 1% benzalkonium chloride (Group 2)): approximately 60%
- amount of calcitonin in the aqueous solution in terms of the initially prepared concentration ([3]; skin washed with just distilled water (Group 1)): approximately 30%
